Measurements taken from publication PMC5937080, “Design, Synthesis and Biological Evaluation of Novel Peptide-Like Analogues as Selective COX-2 Inhibitors” (Iranian Journal of Pharmaceutical Research : IJPR, 2018).

Assays:
COX-1 = target: T1, COX-1 (Ovis aries, UniProt P05979); assay: biochemical; settings: ovine COX-1/COX-2 assay kit; mean of two determinations, deviation < 10% of the mean
T1 construct: purchased Cayman chemical, MI, USA
T1 sequence (P05979 25-600): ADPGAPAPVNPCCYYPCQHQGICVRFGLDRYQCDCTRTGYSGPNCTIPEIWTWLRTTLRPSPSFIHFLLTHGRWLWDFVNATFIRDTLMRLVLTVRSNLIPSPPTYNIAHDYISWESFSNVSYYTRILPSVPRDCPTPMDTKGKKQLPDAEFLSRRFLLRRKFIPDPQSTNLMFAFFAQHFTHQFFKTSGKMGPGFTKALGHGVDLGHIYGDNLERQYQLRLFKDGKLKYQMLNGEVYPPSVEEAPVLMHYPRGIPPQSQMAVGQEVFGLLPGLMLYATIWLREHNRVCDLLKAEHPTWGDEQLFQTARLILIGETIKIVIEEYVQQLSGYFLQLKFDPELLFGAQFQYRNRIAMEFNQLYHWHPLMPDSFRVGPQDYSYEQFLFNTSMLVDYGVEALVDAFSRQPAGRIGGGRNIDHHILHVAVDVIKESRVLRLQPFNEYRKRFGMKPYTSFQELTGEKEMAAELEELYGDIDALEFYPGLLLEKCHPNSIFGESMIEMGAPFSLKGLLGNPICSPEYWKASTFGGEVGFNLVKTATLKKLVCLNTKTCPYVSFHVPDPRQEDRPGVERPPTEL
Description: (§1) In-vitro cyclooxygenase (COX) inhibition assays
(§2) The assay was performed using an enzyme chemiluminescent kit (Cayman chemical, MI, USA) according to the previously reported method ([17]).

COX-2 = target: T2, COX-2 (Ovis aries, UniProt P79208); assay: biochemical; settings: for IC50: ovine COX-1/COX-2 assay kit, mean of two determinations, deviation < 10% of the mean
T2 construct: purchased Cayman chemical, MI, USA
T2 sequence (P79208 17-603): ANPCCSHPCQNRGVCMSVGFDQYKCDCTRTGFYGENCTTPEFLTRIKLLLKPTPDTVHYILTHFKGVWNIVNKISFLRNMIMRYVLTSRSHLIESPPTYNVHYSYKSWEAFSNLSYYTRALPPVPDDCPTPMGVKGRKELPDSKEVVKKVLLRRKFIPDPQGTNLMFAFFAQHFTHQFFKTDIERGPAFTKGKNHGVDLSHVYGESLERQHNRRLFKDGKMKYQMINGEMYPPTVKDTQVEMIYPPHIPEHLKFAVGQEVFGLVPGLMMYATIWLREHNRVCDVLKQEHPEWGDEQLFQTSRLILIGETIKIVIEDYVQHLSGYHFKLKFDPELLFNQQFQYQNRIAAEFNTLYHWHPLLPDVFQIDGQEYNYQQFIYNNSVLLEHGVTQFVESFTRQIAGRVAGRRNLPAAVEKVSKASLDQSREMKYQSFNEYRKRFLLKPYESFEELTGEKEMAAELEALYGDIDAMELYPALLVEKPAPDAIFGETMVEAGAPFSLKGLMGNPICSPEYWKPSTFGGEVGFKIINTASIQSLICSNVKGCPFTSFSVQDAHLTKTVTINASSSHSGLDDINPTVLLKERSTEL
Description: as §1, §2

IC50 (COX-1)	IC50 (COX-2)	S.I. In-vitro COX-2 selectivity index (COX-1 IC50/COX-2 IC50) (COX-2)	SMILES
> 100 µM	> 100 µM		CS(=O)(=O)c1ccc(C(=O)NC(Cc2ccccc2)C(=O)O)cc1 (centres unmarked) [Compound 1c, p-(methylsulfonyl)benzoyl-phenylalanine]
55.5 µM	> 100 µM		[N-]=[N+]=Nc1ccc(C(=O)NC(Cc2ccccc2)C(=O)O)cc1 (centres unmarked) [Compound 1d, p-azidobenzoyl-phenylalanine]
> 100 µM	> 100 µM		CS(=O)(=O)c1ccc(C(=O)NC(Cc2cnc[nH]2)C(=O)O)cc1 (stereo not drawn) [Compound 2c, p-MeSO2Bz -His]
28.1 µM	0.08 µM	351.2	[N-]=[N+]=Nc1ccc(C(=O)NC(Cc2c[nH]cn2)C(=O)O)cc1 (centres unmarked) [Compound 2d, p-N3Bz -His]
25.2 µM	0.23 µM	109.6	CS(=O)(=O)c1ccc(C(=O)NC(Cc2ccc(O)cc2)C(=O)O)cc1 (stereo not drawn) [Compound 3c, p-MeSO 2 Bz -Tyr]
20.9 µM	10.1 µM	2.1	[N-]=[N+]=Nc1ccc(C(=O)NC(Cc2ccc(O)cc2)C(=O)O)cc1 (centres unmarked) [Compound 3d, p-N3Bz -Tyr]
16.6 µM	0.09 µM	184.4	CS(=O)(=O)c1ccc(C(=O)NC(Cc2c[nH]c3ccccc23)C(=O)O)cc1 (stereo not drawn) [Compound 4c, p-MeSO2Bz -Trp]
> 100 µM	> 100 µM		[N-]=[N+]=Nc1ccc(C(=O)NC(Cc2c[nH]c3ccccc23)C(=O)O)cc1 (centres unmarked) [Compound 4d, p-N3Bz -Trp]
